This is an account of results in patent EP2222702B1, “HUMAN […] SPECIFIC ANTIBODIES” (Cytos Biotechnology AG, priority 2007, dated 2009).

Assay [1] addresses human monoclonal nicotine-specific antibody IgG2-F018 (HCVR SEQ ID NO:24, LCVR SEQ ID NO:26). The assay can be described thus: Equilibrium dialysis, affinity and competition. In kind it is binding. The conditions noted are these: for Cross-reactivity: competition with tritium-labeled (S)-(-)-nicotine for binding to IgG2-F018: 56 nM tritium-labeled (S)-(-)-nicotine, IgG2-F018 50 nM, unlabeled compound 1 nM to 100 µM, acetylcholine even at a 4000 fold molar excess. The protocol:
Figure 1. Specificity of IgG2-F018. The binding of tritium-labeled (-)-nicotine (56 nM) to IgG2-F018 (50 nM) was measured by equilibrium dialysis in the presence of increasing concentrations of unlabeled (-)-nicotine, (-)-cotinine or acetylcholine. Averages of two independent experiments are given with standard deviation.
(§1) Affinity of antibodies for (S)-(-)-nicotine was determined by equilibrium dialysis using a DispoEquilibriumDialyzer (Harvard Biosciences). Two chambers of the dialyzer were separated by a membrane (10'000 Da cut-off). […] Concentrations of tritium-labeled (S)-(-)-nicotine (Amersham) ranging from 3 to 444 nM were used. Equilibrium dialysis was allowed to proceed for 48-72 h. Aliquots from both sides of the chamber were taken and radioactivity measured in a scintillation counter. Radioactivity corresponding to antibody-bound (S)-(-)-nicotine was calculated by subtracting the radioactivity measured for the chamber containing no antibody from the one containing the antibody. The free (S)-(-)-nicotine concentration was determined from the radioactivity measured for the chamber containing no antibody. The equilibrium dissociation constant (Kd) was derived from the fit of a one-site binding model to the measured bound radioactivity as a function of the free (S)-(-)-nicotine concentration. […]
Cross-reactivity of mAb IgG2-F018 to (-)-cotinine and acetylcholine was determined by co-incubation of 10 fold serial dilutions of these compounds (1 nM to 100 µM) with 56 nM tritium-labeled (S)-(-)-nicotine in the equilibrium dialysis chambers as described above (Figure 1).
(§2) We next determined the affinities of mAbs IgG2-F018, -F063, -J004, -J042 and-N049 for the (R)-(+)-isomer of nicotine. This stereoisomer is present in the tobacco plant. In addition, it can be formed by the combustion process during smoking and has qualitatively similar activities on the central nervous system as (S)-(-)-nicotine (Hukkanen J. et al., 2005, Pharmacol. Rev. 57, 79-115). Thus, the binding of a fixed concentration of tritium-labeled (S)-(-)-nicotine (F018: 56 nM; F063, J004, J042, N049: 111 nM) to each of the antibodies was measured by equilibrium dialysis in the presence of increasing concentrations of unlabeled (R)-(+)-nicotine (1 nM to 100 µM). The equilibrium dissociation constant (Kd) was derived from the fit of a one-site competition model to the measured bound radioactivity as a function of the (R)-(+)-nicotine concentration. […] Table 5. Dissociation constants Kd (nM) of antibody-(R)-(+)-nicotine interactions measured by equilibrium dialysis.
For orientation: In equilibrium dialysis free small molecules cross a membrane that holds back macromolecules.

For assay [2], the target named is human monoclonal nicotine-specific antibody IgG2-J042 (HCVR SEQ ID NO:28, LCVR SEQ ID NO:37). The protocol: as §1, §2
The target of assay [3] is human monoclonal nicotine-specific antibody IgG2-F063 (HCVR SEQ ID NO:28, LCVR SEQ ID NO:31). The protocol:
as §1, §2

In assay [4] the target is human monoclonal nicotine-specific antibody IgG2-N049 (HCVR SEQ ID NO:39, LCVR SEQ ID NO:41). As for the experimental part:
as §1, §2

In assay [5] the target is human monoclonal nicotine-specific antibody IgG2-J004 (HCVR SEQ ID NO:33, LCVR SEQ ID NO:35). As for the experimental part:
as §1, §2

Assay [6] has as its target polyclonal antibodies against (S)-(-)-nicotine. The conditions noted are these: read-out: affinity of polyclonal antibodies against (S)-(-)-nicotine; Maurer P. et al., 2005; cited from earlier work.
In assay [7] the target is human monoclonal nicotine-specific antibody IgG2-I022 (HCVR SEQ ID NO:43, LCVR SEQ ID NO:45). The following applies: read-out: Dissociation constant Kd, (S)-(-)-nicotine; IgG2 7.5 µg/ml in PBS/2% BSA; tritium-labeled (S)-(-)-nicotine 3 to 444 nM; 48-72 h; mean ± SD of at least 2 independent experiments. As for the experimental part:
as §1

In assay [8] the target is human monoclonal nicotine-specific antibody N049, scFv-Fc fusion (scFv SEQ ID NO:68; HCVR SEQ ID NO:39, LCVR SEQ ID NO:41). The conditions noted are these: read-out: Dissociation constant Kd, (S)-(-)-nicotine; scFv-Fc 5.4 µg/ml in PBS/2% BSA; tritium-labeled (S)-(-)-nicotine 3 to 444 nM; 48-72 h; mean ± SD of at least 2 independent experiments. As for the experimental part: as §1

The target of assay [9] is human monoclonal nicotine-specific antibody N038, scFv-Fc fusion (scFv SEQ ID NO:72; HCVR SEQ ID NO:47, LCVR SEQ ID NO:49). The following applies: read-out: Dissociation constant Kd, (S)-(-)-nicotine; scFv-Fc 5.4 µg/ml in PBS/2% BSA; tritium-labeled (S)-(-)-nicotine 3 to 444 nM; 48-72 h; mean ± SD of at least 2 independent experiments. As for the experimental part:
as §1

For assay [10], the target named is human monoclonal nicotine-specific antibody J042, scFv-Fc fusion (scFv SEQ ID NO:66; HCVR SEQ ID NO:28, LCVR SEQ ID NO:37). The following applies: read-out: Dissociation constant Kd, (S)-(-)-nicotine; scFv-Fc 5.4 µg/ml in PBS/2% BSA; tritium-labeled (S)-(-)-nicotine 3 to 444 nM; 48-72 h; mean ± SD of at least 2 independent experiments. The protocol: as §1
The target in assay [11] is human monoclonal nicotine-specific antibody F018, scFv-Fc fusion (scFv SEQ ID NO:60; HCVR SEQ ID NO:24, LCVR SEQ ID NO:26). The conditions noted are these: read-out: Dissociation constant Kd, (S)-(-)-nicotine; scFv-Fc 5.4 µg/ml in PBS/2% BSA; tritium-labeled (S)-(-)-nicotine 3 to 444 nM; 48-72 h; mean ± SD of at least 2 independent experiments. As for the experimental part:
as §1

Assay [12] has as its target human monoclonal nicotine-specific antibody IgG2-N038 (HCVR SEQ ID NO:47, LCVR SEQ ID NO:49). The following applies: read-out: Dissociation constant Kd, (S)-(-)-nicotine; IgG2 7.5 µg/ml in PBS/2% BSA; tritium-labeled (S)-(-)-nicotine 3 to 444 nM; 48-72 h; measured only once. As for the experimental part:
as §1

In assay [13] the target is human monoclonal nicotine-specific antibody F063, scFv-Fc fusion (scFv SEQ ID NO:62; HCVR SEQ ID NO:28, LCVR SEQ ID NO:31). The following applies: read-out: Dissociation constant Kd, (S)-(-)-nicotine; scFv-Fc 5.4 µg/ml in PBS/2% BSA; tritium-labeled (S)-(-)-nicotine 3 to 444 nM; 48-72 h; mean ± SD of at least 2 independent experiments. As for the experimental part:
as §1

Assay [14] has as its target human monoclonal nicotine-specific antibody I022, scFv-Fc fusion (scFv SEQ ID NO:70; HCVR SEQ ID NO:43, LCVR SEQ ID NO:45). The following applies: read-out: Dissociation constant Kd, (S)-(-)-nicotine; scFv-Fc 5.4 µg/ml in PBS/2% BSA; tritium-labeled (S)-(-)-nicotine 3 to 444 nM; 48-72 h; mean ± SD of at least 2 independent experiments. The protocol: as §1
Assay [15] concerns the target human monoclonal nicotine-specific antibody J004, scFv-Fc fusion (scFv SEQ ID NO:64; HCVR SEQ ID NO:33, LCVR SEQ ID NO:35). The following applies: read-out: Dissociation constant Kd, (S)-(-)-nicotine; scFv-Fc 5.4 µg/ml in PBS/2% BSA; tritium-labeled (S)-(-)-nicotine 3 to 444 nM; 48-72 h; mean ± SD of at least 2 independent experiments. The protocol:
as §1

The mark [16] stands for this setting: read-out: Dissociation constant Kd of antibody-(R)-(+)-nicotine interaction, competition with 111 nM tritium-labeled (S)-(-)-nicotine, unlabeled (R)-(+)-nicotine 1 nM to 100 µM, one-site competition model.
Setting [17] is: read-out: Dissociation constant Kd, (S)-(-)-nicotine, IgG2 7.5 µg/ml in PBS/2% BSA, tritium-labeled (S)-(-)-nicotine 3 to 444 nM, 48-72 h, mean ± SD of at least 2 independent experiments.

Values joined by “and” are separate entries in the source; they are usually repeats but may differ in a detail not shown here. Equal values may be shown once. Read-outs that look alike come from different tables or passages of the source.

With `CN1CCC[C@@H]1c1cccnc1` [(R)-(+)-nicotine], the Kd in [1] (competition with 56 nM tritium-labeled (S)-(-)-nicotine, unlabeled (R)-(+)-nicotine 1 nM to 100 µM, one-site competition model, read-out: Dissociation constant Kd of antibody-(R)-(+)-nicotine interaction) was found to be 3.1 nM; in assay [2] (setting [16]), 7.7 nM; in [3] (setting [16]), 6.6 nM; in assay [4] (setting [16]), 10.5 nM; in [5] (setting [16]), 12.6 nM.
Take `CN1CCC[C@H]1c1cccnc1` [(S)-(-)-nicotine]: the Kd in [6] was 30 to 70 nM; in assay [7], 89.9 ± 9.8 nM; in [8], 72.7 ± 5.6 nM; in [9] it was 686 ± 58 nM; in [10] it was 47 ± 3.1 nM; in [11], 11.5 ± 1.5 nM. The Kd was 744 nM in assay [12]; 70.5 ± 14 nM in [13]; 42.5 ± 17 nM in [14]; 33.3 ± 2 nM in assay [15]; 7 nM and 7.4 nM in assay [1] (IgG2 7.5 µg/ml in PBS/2% BSA, tritium-labeled (S)-(-)-nicotine 3 to 444 nM, 48-72 h, mean ± SD of at least 2 independent experiments, read-out: Dissociation constant Kd, (S)-(-)-nicotine); 30.2 ± 11 nM in assay [2] (setting [17]). Further, the Kd is 31.4 ± 13 nM in [3] (setting [17]), 35.6 ± 3.5 nM in assay [4] (setting [17]) and 64.5 ± 2.2 nM in assay [5] (setting [17]). Moreover, the “Cross-reactivity: competition with tritium-labeled (S)-(-)-nicotine for binding to IgG2-F018” value in assay [1] is “readily displaced”.
`CN1C(=O)CC[C@H]1c1cccnc1` [(-)-cotinine]: the “Cross-reactivity: competition with tritium-labeled (S)-(-)-nicotine for binding to IgG2-F018” value in assay [1] is listed as “did not effectively compete”. In [1] (equilibrium dialysis competition with 56 nM tritium-labeled (S)-(-)-nicotine), the “Binding strength relative to (S)-(-)-nicotine (fold less strongly), estimated from the IC50 observed” value is “about 1000 fold”.
